The subject of test [1] is E. coli MG1655. The test is described as follows: microbe, parasite or virus in culture. The test is classed as cell-based, Escherichia coli. The settings on record: for FICI in combination with rifampin: 8 × 8 checkerboard, FICI ≤0.5 indicates synergy; for Synergistic activity with rifampin (in words): checkerboard assays, analogs of CAS. Here is the method:
(§1) Checkerboard assays were performed to evaluate the synergistic effect of CAS in combination with antibiotics as previously described ([Cai et al., 2023]). Briefly, antibiotics and CAS were diluted two times with MHB medium (with or without Mg^2+ or EDTA) in a 96-well plate, respectively, to form an 8 × 8 medium, and an equal volume (200 μL/well) of bacterial suspension with the drug was cultured. A microplate reader was used to measure the OD600 value after 18 h of culture at 37°C (the OD600 value over 0.1 indicates bacterial growth). The fractional inhibitory concentration index (FICI) was calculated using the following formula: FICI = MICab/MICa + MICba/MICb. MICa and MICb are the corresponding MIC values of compounds A and B alone, respectively; MICab is the MIC value of compound A combined with compound B; and MICba is the MIC value of compound B combined with compound A. Indicative of synergy is FICI ≤0.5.

The subject of test [2] is E. coli MG1655. In words: High-throughput screening of FDA-approved drug library for antibiotic adjuvants (growth inhibition, OD600). To be noted: library drug alone, LB medium, 96-well, 8 h static culture at 37°C, relative to PMBN (positive) and DMSO (negative) controls, %, table head prints no unit. The test is classed as cell-based, Escherichia coli.
For test [3], the system named is E. coli MG1655. Described as above. The test is classed as cell-based, Escherichia coli.
The test system of a further test is K+ channel (KvQT1/minK). The settings on record: vendor library annotation (Targetmol); ref Kang J, et al. J Pharmacol Exp Ther. 2001 Oct;299(1):290-6; read-out: IC50, K+ channel (KvQT1/minK) antagonist; cited from earlier work. From the text:
Supplement Table_1.XLSX, sheet "Sheet1" | column: Bioactivity

The next test has as its system E. coli 69. The test is described as follows: Checkerboard assay. The test is classed as cell-based, Escherichia coli. To be noted: MHB, 18 h at 37°C, OD600. How it is done: as §1
Test [4] has as its system E. coli 72. The test is described as follows: Checkerboard assay. The settings on record: multidrug-resistant strain, MHB, 18 h at 37°C, OD600. The test is classed as cell-based, Escherichia coli. Here is the method: as §1
A further test concerns E. coli ATCC25922. The test is described as follows: Checkerboard assay. The test is classed as cell-based, Escherichia coli. The settings on record: MHB, 18 h at 37°C, OD600. Here is the method:
as §1

For test [5], the system named is Salmonella Typhimurium ATCC14028. The test is described as follows: Checkerboard assay. The test is classed as cell-based. To be noted: MHB, 18 h at 37°C, OD600. How it is done:
as §1

Another test relates to P. aeruginosa PAO1. The test is described as follows: Checkerboard assay. The test is classed as cell-based, Pseudomonas aeruginosa. To be noted: MHB, 18 h at 37°C, OD600. Here is the method: as §1
Test [6] concerns E. coli 72. The test is described as follows: Time-kill curve. The test is classed as cell-based, Escherichia coli. To be noted: 1 × 10^6 CFU in MHB; CAS 32 μg/mL, rifampin 8 μg/mL, alone or combined; counted at 4, 8, 24 h. Here is the method: (§2) At each time point (0, 4, 8, and 24 h), 100 μL of the bacterial solution was continuously diluted 10-fold in physiological saline. Subsequently, the suspension was then plated onto LB agar plates and cultured for an overnight period at 37°C for bacterial count.

The test system of test [7] is E. coli MG1655. The test is described as follows: Time-kill curve. The test is classed as cell-based, Escherichia coli. The settings on record: 1 × 10^6 CFU in MHB; CAS 16 μg/mL, rifampin 1 μg/mL, alone or combined; counted at 4, 8, 24 h. How it is done:
as §2

Test [8] concerns E. coli 72. The test is described as follows: Galleria mellonella infection model. The test is classed as in vivo. The settings on record: 2.25 × 10^5 CFU E. coli 72; CAS 64 mg/kg, rifampin 16 mg/kg, alone or in combination, injected via proleg; 10 larvae per group; survival over 48 h.
Where [9] appears, read: library drug with 2 μg/mL rifampin, LB medium, 96-well, 8 h static culture at 37°C, OD600, relative to PMBN (positive) and DMSO (negative) controls, %, table head prints no unit.

Structures can show the parent of a compound that is named as a salt. Where two headings read alike, the source gives them in different places. Numbered stars: 1 amine (or outer) side, 2 acyl side, 3 side chain; on linkers, the order of the positions; unused ones are H or OH. Bridge positions count the residues as written; N and C are the ends. Square brackets hold non-standard residues; d marks the D form. Peptide text beside a SMILES is read from it. * marks the point of attachment. pTerphenylCO(4''-OnC5H11) = CCCCCOc1ccc(-c2ccc(-c3ccc(C(=O)*)cc3)cc2)cc1; Orn(4R-OH,5R-OH) = O=C([C@H](C[C@@H](O)[C@@H](O)N[*:3])N[*:1])[*:2]; hTyr(3S-OH,4S-OH) = N[C@H](C(=O)O)[C@H](O)[C@@H](O)c1ccc(O)cc1; Pro(3S-OH,4S-Me) = C[C@H]1CN[C@H](C(=O)O)[C@H]1O; Hyp = O=C(O)[C@@H]1C[C@@H](O)CN1 Bounds are passed on as bounds.

With `CCCCCOc1ccc(-c2ccc(-c3ccc(C(=O)N[C@H]4C[C@@H](O)[C@@H](O)NC(=O)[C@@H]5[C@@H](O)[C@@H](C)CN5C(=O)[C@H]([C@@H](C)O)NC(=O)[C@H]([C@H](O)[C@@H](O)c5ccc(O)cc5)NC(=O)[C@@H]5C[C@@H](O)CN5C(=O)[C@H]([C@@H](C)O)NC4=O)cc3)cc2)cc1` [Anidulafungin] ({pTerphenylCO(4''-OnC5H11)}-[Orn(4R-OH,5R-OH)]T[Hyp][hTyr(3S-OH,4S-OH)]T[Pro(3S-OH,4S-Me)]; lactam 1-C; N-terminus assumed), in the test with E. coli MG1655 [1] (MHB, 18 h at 37°C), the “FICI in combination with rifampin” value is given as above 1. The “Synergistic activity with rifampin (in words)” value (“Synergistic activity” below) with E. coli MG1655 [1] was “weak synergistic activity”.
As to `CC(=O)OC[C@H]1O[C@@H]([S-])[C@H](OC(C)=O)[C@@H](OC(C)=O)[C@@H]1OC(C)=O.CCP(CC)CC.[Au+]` [Auranofin], in the test with E. coli MG1655 [2], the “Growth inhibition, Compound” value stood at 64%. Besides, the “Growth inhibition, Compound + rifampin” value in the test on E. coli MG1655 [3] is listed as 60%.
As for `O=C(Cn1cnnn1)N[C@@H]1C(=O)N2C(C(=O)[O-])=C(CSc3nncs3)CS[C@H]12.[Na+]` [Ceftezole sodium], the “Growth inhibition, Compound” value in the test with E. coli MG1655 [2] is recorded as 109%. The “Growth inhibition, Compound + rifampin” value with E. coli MG1655 [3] is given as 102%.
For `O=C(O)c1cn(C2CC2)c2cc(N3CCNCC3)c(F)cc2c1=O` [Ciprofloxacin hydrochloride], the “Growth inhibition, Compound” value with E. coli MG1655 [3] amounted to 98%.
For `CO[C@@]1(NC(=O)CSC(F)F)C(=O)N2C(C(=O)[O-])=C(CSc3nnnn3CCO)CO[C@@H]21.[Na+]` [Flomoxef sodium], in the test on E. coli MG1655 [2], the “Growth inhibition, Compound” value is given as 108%. The “Growth inhibition, Compound + rifampin” value in the test with E. coli MG1655 [3] is given as 101%.
Regarding `C=C1c2c(Cl)ccc(O)c2C(=O)C2=C(O)[C@]3(O)C(=O)C(C(N)=O)=C(O)[C@@H](N(C)C)[C@@H]3[C@@H](O)[C@H]12.O=C(O)c1cc(S(=O)(=O)O)ccc1O` [Meclocycline sulfosalicylate salt], the “Growth inhibition, Compound” value in the test on E. coli MG1655 [2] is recorded as 100%. In addition, the “Growth inhibition, Compound + rifampin” value in the test with E. coli MG1655 [3] was determined as 100%.
Turning to `OC(c1cc(C(F)(F)F)nc2c(C(F)(F)F)cccc12)C1CCCCN1` (stereo not shown) [Mefloquine], the IC50 in the test with K+ channel (KvQT1/minK) is around 1000 nM.
For the molecule `COS(=O)(=O)[O-].C[n+]1c2ccccc2nc2ccccc21` [Phenazine methosulfate], in the test on E. coli MG1655 [2], the “Growth inhibition, Compound” value came to 80%. Also, the “Growth inhibition, Compound + rifampin” value in the test on E. coli MG1655 [3] (setting [9]) turned out to be 76%.
As for `CN1CCN(c2c(F)cc3c(=O)c(C(=O)O)cn4c3c2SCC4)CC1.Cl` [Rufloxacin hydrochloride], the “Growth inhibition, Compound” value with E. coli MG1655 [2] came to 113%. In addition, the “Growth inhibition, Compound + rifampin” value with E. coli MG1655 [3] was determined as 100%.
In the case of `CO[C@H]1/C=C/O[C@@]2(C)Oc3c(C)c(O)c4c(O)c(c(/C=N/N5CCN(C)CC5)c(O)c4c3C2=O)NC(=O)/C(C)=C\C=C\[C@H](C)[C@H](O)[C@@H](C)[C@@H](O)[C@@H](C)[C@H](OC(C)=O)[C@@H]1C` [rifampin], the “Growth inhibition, Compound” value in the test with E. coli MG1655 [2] stood at 101%. Also, the MIC in the test on E. coli MG1655 [1] (Escherichia coli, MG1655, rifampin alone, MHB, 18 h at 37°C, OD600) came to 8 µg/mL; in the test on E. coli 69 (Escherichia coli, 69, rifampin alone), 8 µg/mL; in the test on E. coli 72 [4] (Escherichia coli, 72, rifampin alone), 64 µg/mL; in the test on E. coli ATCC25922 (Escherichia coli, ATCC25922, rifampin alone) it was 4 µg/mL; in test [5] (Salmonella enterica, rifampin alone), 16 µg/mL; with P. aeruginosa PAO1 (Pseudomonas aeruginosa, PAO1, rifampin alone) it was 16 µg/mL. Also, the “MIC of rifampin in combination with CAS” value with E. coli MG1655 [1] (rifampin with CAS, MHB, 18 h at 37°C, OD600) stood at 0.5 µg/mL; with E. coli 69 (rifampin with CAS) it was 0.5 µg/mL; in the test with E. coli 72 [4] (rifampin with CAS), 0.5 µg/mL; with E. coli ATCC25922 (rifampin with CAS), 0.25 µg/mL; in test [5] (rifampin with CAS) it was 0.5 µg/mL; in the test with P. aeruginosa PAO1 (rifampin with CAS) it was 0.5 µg/mL. In addition, the “Time-kill, bacterial count” value with E. coli 72 [6] and in the test on E. coli MG1655 [7] was “no antimicrobial efficacy” in each case. Also, in the test on E. coli 72 [8], the “Death/mortality rate of G. mellonella larvae challenged with E. coli 72” value is on record as “could not reduce the death rate”.
For Cefetamet pivoxil hydrochloride, in the test with E. coli MG1655 [2], the “Growth inhibition, Compound” value was determined as 98%. The “Growth inhibition, Compound + rifampin” value with E. coli MG1655 [3] was determined as 79%.
Colistimethate Sodium: in the test with E. coli MG1655 [2], the “Growth inhibition, Compound” value was 94%. Further, the “Growth inhibition, Compound + rifampin” value in the test with E. coli MG1655 [3] (setting [9]) is given as 95%.
As to Colistin Methanesulfonate (sodium salt), the “Growth inhibition, Compound” value with E. coli MG1655 [2] stood at 87%. The “Growth inhibition, Compound + rifampin” value in the test with E. coli MG1655 [3] (setting [9]) turned out to be 102%.
Turning to Colistin sulfate (1066-17-7 free base), in the test with E. coli MG1655 [2], the “Growth inhibition, Compound” value was found to be 104%. Also, the “Growth inhibition, Compound + rifampin” value in the test on E. coli MG1655 [3] (setting [9]) amounted to 113%.
Take “Echinocandin B nucleus hydrochloride [ECBN HCl]”: in the test on E. coli MG1655 [1] (MHB, 18 h at 37°C), the “FICI in combination with rifampin” value was above 1. The “Synergistic activity” value in the test on E. coli MG1655 [1] is recorded as “weak synergistic activity”.
In the case of Micafungin sodium, the “FICI in combination with rifampin” value in the test with E. coli MG1655 [1] (MHB, 18 h at 37°C) was above 1. Moreover, in the test with E. coli MG1655 [1], the “Synergistic activity” value is on record as “weak synergistic activity”.
For Pneumocandin B0, the “FICI in combination with rifampin” value with E. coli MG1655 [1] (MHB, 18 h at 37°C) was above 1. The “Synergistic activity” value in the test with E. coli MG1655 [1] was “weak synergistic activity”.
For the molecule “Polymyxin B sulfate (1404-26-8 free base)”, the “Growth inhibition, Compound + rifampin” value in the test on E. coli MG1655 [3] (setting [9]) was 104%.
On to Streptozocin, for which the “Growth inhibition, Compound” value with E. coli MG1655 [2] is given as 62%. In addition, in the test with E. coli MG1655 [3], the “Growth inhibition, Compound + rifampin” value turned out to be 69%.

Values taken from article PMC11358092, “Caspofungin enhances the potency of rifampin against Gram-negative bacteria” (Frontiers in Microbiology, 2024).
